Target: F508del-CFTR (Homo sapiens, UniProt P13569, DEL508-508)
Assay: HS-YFP iodide-influx fluorescence quenching assay, […] h incubation, Hill fit
Format: cell-based
Conditions: read-out: half-effective concentration

Sequence of F508del-CFTR (P13569 with tags, fused parts or gaps DEL508-508): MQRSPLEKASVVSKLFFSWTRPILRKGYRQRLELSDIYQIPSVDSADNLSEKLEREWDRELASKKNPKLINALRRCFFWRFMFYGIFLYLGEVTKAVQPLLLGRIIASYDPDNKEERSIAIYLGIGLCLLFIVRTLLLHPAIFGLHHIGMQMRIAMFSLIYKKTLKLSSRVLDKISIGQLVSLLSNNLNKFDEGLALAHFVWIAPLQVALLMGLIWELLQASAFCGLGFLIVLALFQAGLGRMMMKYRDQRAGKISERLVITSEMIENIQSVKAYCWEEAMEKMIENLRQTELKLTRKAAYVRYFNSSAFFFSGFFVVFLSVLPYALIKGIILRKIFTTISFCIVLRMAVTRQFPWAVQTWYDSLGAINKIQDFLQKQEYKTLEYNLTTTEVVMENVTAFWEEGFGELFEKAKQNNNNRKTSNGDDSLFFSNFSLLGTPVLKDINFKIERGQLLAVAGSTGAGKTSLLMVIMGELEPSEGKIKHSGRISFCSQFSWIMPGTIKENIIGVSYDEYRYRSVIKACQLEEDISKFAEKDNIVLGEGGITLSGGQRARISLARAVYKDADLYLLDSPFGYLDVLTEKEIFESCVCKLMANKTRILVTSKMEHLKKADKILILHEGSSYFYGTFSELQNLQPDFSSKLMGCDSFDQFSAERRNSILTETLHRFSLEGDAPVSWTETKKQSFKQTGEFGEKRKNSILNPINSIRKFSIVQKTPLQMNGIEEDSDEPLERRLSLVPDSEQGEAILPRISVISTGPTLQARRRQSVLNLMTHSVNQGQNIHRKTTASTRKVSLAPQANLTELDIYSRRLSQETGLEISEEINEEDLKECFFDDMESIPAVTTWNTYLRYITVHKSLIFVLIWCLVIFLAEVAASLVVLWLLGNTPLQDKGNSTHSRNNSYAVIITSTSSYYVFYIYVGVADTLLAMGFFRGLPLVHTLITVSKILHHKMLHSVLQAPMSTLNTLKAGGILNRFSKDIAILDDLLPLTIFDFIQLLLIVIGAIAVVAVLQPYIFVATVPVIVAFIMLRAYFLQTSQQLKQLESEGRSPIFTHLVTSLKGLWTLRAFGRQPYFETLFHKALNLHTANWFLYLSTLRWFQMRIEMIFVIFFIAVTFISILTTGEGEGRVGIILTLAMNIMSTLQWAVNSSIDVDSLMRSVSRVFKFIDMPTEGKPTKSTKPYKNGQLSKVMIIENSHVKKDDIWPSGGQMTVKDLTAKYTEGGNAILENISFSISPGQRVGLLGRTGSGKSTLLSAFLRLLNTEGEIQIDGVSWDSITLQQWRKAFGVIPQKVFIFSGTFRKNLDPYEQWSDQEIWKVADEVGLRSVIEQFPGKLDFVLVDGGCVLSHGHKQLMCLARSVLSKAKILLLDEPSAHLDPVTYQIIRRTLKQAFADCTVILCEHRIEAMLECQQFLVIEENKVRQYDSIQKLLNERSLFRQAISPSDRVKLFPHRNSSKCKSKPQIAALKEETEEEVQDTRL

SMILES: COc1ccc(Cl)cc1NC(=O)c1cc2c([nH]1)-c1nc(NC(=O)C(C)(C)C)sc1CC2 [compound 44, N-(5-Chloro-2-Methoxyphenyl)-2-[(2,2-Dimethylpropanoyl)Amino]-5,8-Dihydro-4H-[1,3]Thiazolo[5,4-g]Indole-7-Carboxamide]
- EC50: 5 µM

Reference: PMC7956813, “Evaluation of Fused Pyrrolothiazole Systems as Correctors of Mutant CFTR Protein” (Molecules, 2021)
